Laboratory results taken from patent publication US20150202212A1, “METHODS FOR IDENTIFYING AGENTS FOR TREATING SMOOTH MUSCLE DISORDERS AND COMPOSITIONS THEREOF” (University of Massachusetts Medical School, priority 2012, published 2015).
“Also recorded” adds a separate entry of the source. Where two headings read alike, the source gives them in different places.

Legend:
[1] = test system: isolated mouse airway smooth muscle cells; assay: Measurement of global [Ca2+]i (fluo-3) in freshly isolated mouse airway smooth muscle cells; assay type: cell-based; conditions: for effect on chloroquine-induced reversal of the KCl-induced increase in [Ca2+]i: PTX 1 μg/ml 6-8 hours, gallein 20 μM, Anti-βγ 1 μM, U73122, 2-ABP at concentrations of FIG. 5; for chloroquine-induced increase in global [Ca2+]i, % of control: resting cells, PTX 1 μg/ml 6-8 hr, gallein 20 μM 30 min, Anti-βγ 1 μM 1 hr, U73122 3 μM, 2-APB 50 μM; for effect on chloroquine's reduction of the Mch-induced [Ca2+]i increase: 10 μM FPL, single cell level
Protocol: (§1) The tracheas and bronchi were dissected free from the surface of the connective tissue. The tissue was incubated in the dissociation medium containing papain 30 unit/ml, 1 mM DTT, and 0.5 mg/ml BSA, at 35° C. for 30 min, and then transferred to a dissociation medium containing 3 unit/ml collagenase F and 0.5 mg/mL BSA, and incubated at 35° C. for another 15 min to produce isolated ASM cells. Finally, the tissue was agitated with a fire polished wide-bore glass pipette to release the cells.
Fluorescence images using fluo-3 as a calcium indicator were obtained using a custom-built wide-field digital imaging system. The camera was interfaced to a custom made inverted microscope, and the cells were imaged using either a 20× Nikon 1.3 NA for global [Ca^2+] measurement or a 60× Nikon 1.4 NA oil for Ca^2+ spark measurement. […] The images were acquired at the speed of either 1 Hz for global [Ca^2+] measurement or 50 Hz for Ca^2+ spark measurement. Subsequent image processing and analysis was performed off line using a custom-designed software package, running on a Linux/PC workstation. [Ca^2+]i was represented as ΔF/F0*100 with F calculated by integrating fluo-3 over entire cells for global [Ca^2+], or just the value at the brightest pixel (i.e., epicenter pixel) for Ca^2+ sparks.
All chemicals, except fluo-3 (Invitrogen Co, San Diego, Calif., USA), gallein (Tocris Bioscience, Bristol, United Kingdom), and Anti-βγ blocking peptide (AnaSpec, Fremont, Calif., USA), were purchased from Sigma-Aldrich Co. (St. Louis, Mo., USA). For single cell studies, agonists and antagonists were applied locally to cells via a picospritzer at a constant pressure, so that the duration of its action and concentration could be controlled easily.

[2] = test system: mouse airways (trachea and bronchi rings); assay: Mouse airway smooth muscle contraction bioassay (isometric tension); conditions: for relaxation of smooth muscle from airways: mouse; for reversal (relaxation) of KCl-induced tension: 60 mM KCl, chloroquine, denatonium 1 mM
Excerpt: C57/BL6 mice at 7-12 weeks of age were sacrificed and the entire respiratory trees were rapidly removed and immersed in Krebs physiologic solution containing (in mM) 118.07 NaCl, 4.69 KCl, 2.52 CaCl2, 1.16 MgSO4, 1.01 NaH2PO4, 25 NaHCO3, and 11.10 glucose. Trachea and bronchi were isolated and cut into rings (4 mm in length). The rings were mounted on a wire myograph chamber (Danish Myo Technology, Aarhus, Denmark), and a PowerLab recording device (AD Instruments) was used to record isometric tension. The ring preparations with zero tension were immersed in 5 ml of Krebs physiologic solution, bubbled with 95% 02 and 5% CO2 at 37° C. The basal tones were set at the level of approximately 2 mN.

[3] = test system: human intrapulmonary bronchi; assay: Force measurement in human intrapulmonary airways; conditions: for relaxation of smooth muscle from airways: human; for reversal (relaxation) of KCl-induced tension: KCl (60 mM), chloroquine, denatonium 1 mM
Excerpt: Trachea and bronchi were isolated and cut into rings (4 mm in length). The rings were mounted on a wire myograph chamber (Danish Myo Technology, Aarhus, Denmark), and a PowerLab recording device (AD Instruments) was used to record isometric tension. […] Human lung tissue was obtained (with informed consent) from patients undergoing surgery (lobectomy) for lung cancer at the Department of Surgery and the Department of Pathology at the Univ. of Massachusetts Memorial Med Ctr (Worcester, Mass.). The tumors were identified as nonsmall cell carcinoma (adenocarcinoma, squamous cell carcinoma). Intrapulmonary airways were dissected out and cleaned free of the connective tissues. These airways were either cut into the rings ([…]) for force measurements the same as for mouse airway tissues, or digested with the same enzymes, dissociation medium and isolation procedure as for single mouse ASM cells. The experimental protocols on human tissues were approved by the Committee for Protection of Human Subjects in Research at the University of Massachusetts Medical School (Protocol 13590 to R.Z).

human pulmonary arteries = assay: Relaxation of human pulmonary arteries pre-contracted by KCl; conditions: for relaxation of smooth muscle from pulmonary artery: human; for relaxation of human pulmonary arteries: pre-contracted by KCl
Excerpt: Human specimen were provided by Univ. Mass. Memorial Medical Center.

[4] = test system: mouse internal anal sphincter; assay: Spontaneous tone of mouse internal anal sphincter; conditions: for relaxation of smooth muscle from internal anal sphincter: mouse
Excerpt: The spontaneous tone contributes about 70% of the basal tonus that maintains fecal continence in human and animals.

mouse urethra = assay: Mouse urethral contraction induced by contractile agonists; conditions: for relaxation of smooth muscle from urethra: mouse
Excerpt: […] were pretreated with bitter tastants, and then stimulated with contractile agonists. Contractile agonists alone were used as the control.

[5] = test system: isolated smooth muscle cells from mouse internal anal sphincter; assay: [Ca2+]i in isolated smooth muscle cells from mouse internal anal sphincter; assay type: cell-based; conditions: CDCA 100 μM; chloroquine 1 mM; denatonium 1 mM
Excerpt: Fluorescence images using fluo-3 as a calcium indicator were obtained using a custom-built wide-field digital imaging system. The camera was interfaced to a custom made inverted microscope, and the cells were imaged using either a 20× Nikon 1.3 NA for global [Ca^2+] measurement or a 60× Nikon 1.4 NA oil for Ca^2+ spark measurement. The 488 nm line of an Argon Ion laser provided fluorescence excitation, with a shutter to control exposure duration, and emission of the Ca^2+ indicator was monitored at wavelengths >500 nm. The images were acquired at the speed of either 1 Hz for global [Ca^2+] measurement or 50 Hz for Ca^2+ spark measurement. Subsequent image processing and analysis was performed off line using a custom-designed software package, running on a Linux/PC workstation. [Ca^2+]i was represented as ΔF/F0*100 with F calculated by integrating fluo-3 over entire cells for global [Ca^2+], or just the value at the brightest pixel (i.e., epicenter pixel) for Ca^2+ sparks.

[6] = test system: pulmonary artery from mouse; assay: Relaxation of smooth muscle from mouse pulmonary artery
Mouse ASM cells = assay: Measurement of cell shortening in mouse ASM cells; assay type: cell-based; conditions: Mch 100 μM; n=21
Protocol: as §1, with “the cells. Myocytes were placed into a recording chamber superfused with the bath solution for patch clamp experiments at room temperature. Cells loaded with Fluo-3 were imaged using a custom-built wide-field digital imaging system and their lengths were determined using custom software to manually trace down the center of the cell.” for “the cells.”

mouse airway strips = conditions: all at 1 mM; [Ca2+]i clamped; α-toxin permeabilized
[7] = pretreatment, Chloro 1 mM, CDCA 100 μM

In the case of NCCOB(c1ccccc1)c1ccccc1 [2-APB, 2-Aminoethoxydiphenyl borate], the “effect on chloroquine-induced reversal of the KCl-induced increase in [Ca2+]i” value (“effect … of the KCl-induced increase in [Ca2+]i” for short) [1] is reported as “failed to alter” and the “chloroquine-induced increase in global [Ca2+]i, % of control” value [1] is reported as −10.5±7.3%.

In the case of C[C@H](CCC(=O)O)[C@H]1CC[C@H]2[C@@H]3[C@H](O)C[C@@H]4C[C@H](O)CC[C@]4(C)[C@H]3CC[C@]12C [CDCA, chenodeoxycholic acid], the “relaxation of smooth muscle from airways” value [2] is reported as “fully relax”, the “relaxation of smooth muscle from airways” value [3] is reported as “fully relax” and the “relaxation of smooth muscle from pulmonary artery” value (from here on “relaxation … from pulmonary artery”) (human pulmonary arteries) is reported as “fully relax”. The “effect on spontaneous tone” value [4] was “reversed totally”, the “relaxation of smooth muscle from internal anal sphincter” value [4] was “fully relax” and the “relaxation of smooth muscle from urethra” value (mouse urethra) was “fully relax”. For the same molecule, the “effect on 10 μM methacholine-induced contraction” value (mouse urethra; pretreatment, CDCA 100 μM) was “inhibited”, the “effect on 60 mM KCl-induced contraction” value (mouse urethra; [7]) was “blocked” and the “effect on alpha1-agonist phenylephrine-induced contraction” value (mouse urethra; [7]) was “inhibited”. The “effect on the increase in [Ca2+]i induced by 60 mM KCl” value [5] was “reversibly inhibited” and the “relaxation … from pulmonary artery” value [6] was “fully relax”.

In the case of C[C@H](CCC(=O)O)[C@H]1CC[C@H]2[C@@H]3CC[C@@H]4C[C@H](O)CC[C@]4(C)[C@H]3C[C@H](O)[C@]12C [DCA, deoxycholic acid], the “relaxation of smooth muscle from airways” value [2] is reported as “fully relax”, the “relaxation of smooth muscle from airways” value [3] is reported as “fully relax” and the “reversal (relaxation) of KCl-induced tension” value (“reversal (relaxation)” for short) ([3]; human airways) is reported as “fully relaxed”. The “relaxation … from pulmonary artery” value (human pulmonary arteries) was “fully relax”, the “relaxation of human pulmonary arteries” value (human pulmonary arteries) was “markedly relaxed” and the “relaxation of smooth muscle from internal anal sphincter” value [4] was “fully relax”. The “relaxation of smooth muscle from urethra” value (mouse urethra) was “fully relax” and the “relaxation … from pulmonary artery” value [6] was “fully relax”.

For COC(=O)c1c(C)[nH]c(C)c1C(=O)c1ccccc1Cc1ccccc1 [FPL, FPL 64176], the “effect on chloroquine's reduction of [Ca2+]i in cells stimulated by KCl” value [1] was “prevented”, the “effect on chloroquine's reduction of the Mch-induced [Ca2+]i increase” value [1] was “prevent chloroquine from reducing” and the “effect on chloroquine's reduction of the Mch-induced [Ca2+]i increase” value ([1]; listed as FPL 64176) was “prevented chloro from reversing”. For the same molecule, the “effect on chloroquine's reduction of [Ca2+]i in cells stimulated by KCl” value ([1]; listed as FPL 64176) was “inhibited”, the “effect on chloroquine-induced relaxation in ASM pre-contracted by KCl” value ([2]; KCl 60 mM) was “dose-dependently reversed; also recorded: dose-dependently inhibited” and the “effect on chloroquine-induced relaxation of Mch precontracted airways” value ([2]; tissue level) was “prevent chloroquine from relaxing; also recorded: dose-dependently reversed”.

[Cl-].[K+] [KCl] was tested, and the “KCl-induced increase in ΔF/F0” value ([1]; KCl 60 mM, without diltiazem, n=9) was 122±19%.

With CC(=O)OC(C)C[N+](C)(C)C (stereo not shown) [Mch, methacholine] the “increase in fluo-3 fluorescence (ΔF/F0)” value ([1]; Mch 100 μM) was 162±26%, the “contraction (tension) of mouse airways at rest” value ([2]; 1 mM chloro, 100 μM Mch) was “robust contraction” and the “tension generated in Ca2+ free medium, % of that in the presence of extracellular Ca2+” value ([2]; Ca2+ free medium) was “less than 20%”. For the same molecule, the “contraction (force) of mouse airways at rest” value ([2]; chloroquine 10 μM-1 mM, Mch 0.1-10 μM) was “induced contraction markedly” and the cell shortening (Mouse ASM cells) was 49±8%.

For COc1ccc2c(c1)CC[C@@H]1[C@@H]2CC[C@]2(C)[C@@H](NCCCCCCN3C(=O)C=CC3=O)CC[C@@H]12 [U73122], the “effect … of the KCl-induced increase in [Ca2+]i” value [1] was “failed to alter” and the “chloroquine-induced increase in global [Ca2+]i, % of control” value [1] was 18.0±5.5%.

In the case of CC[N+](CC)(CC(=O)Nc1c(C)cccc1C)Cc1ccccc1 [denatonium], the “reversal (relaxation)” value ([2]; mouse airways) is reported as “fully reversed; also recorded: relaxed”, the “reversal (relaxation)” value ([3]; human airways) is reported as “fully reversed” and the “relaxation of human pulmonary arteries” value (human pulmonary arteries) is reported as “failed to exert any effect”. For the same molecule, the “effect on spontaneous tone” value [4] was “enhanced”, the “effect on the increase in [Ca2+]i induced by 60 mM KCl” value [5] was “did not affect” and the “relaxation of ASM at fixed [Ca2+]i” value (mouse airway strips) was “failed to relax”.

For COc1ccc([C@@H]2Sc3ccccc3N(CCN(C)C)C(=O)[C@@H]2OC(C)=O)cc1 [diltiazem], the “KCl-induced increase in ΔF/F0 after diltiazem pretreatment” value ([1]; 10 μM diltiazem pretreatment, KCl 60 mM, n=9) was 16.8±10%, the “effect on KCl (60 mM)-induced increase in [Ca2+]i” value ([1]; prior application of diltiazem 100 μM) was “blocked” and the “reversal of the Mch-induced increase in [Ca2+]” value ([1]; single isolated mouse ASM cells, n=12) was 90.2±2.9%. The “reversal of the KCl-induced contraction” value ([2]; KCl 60 mM, n=6) was 93.1±4.8%, the “reversal of Mch-induced airway force generation” value ([2]; mouse airways) was “dose-dependently reversed” and the “reversal (relaxation)” value ([2]; mouse airways) was “relaxed”. The “reversal of Mch-induced airway force generation” value ([3]; human airways, 10 μM Mch) was “dose-dependently reversed” and the “reversal (relaxation)” value ([3]; human airways) was “relaxed”.

In the case of O=C1OC2(c3ccccc31)c1ccc(O)c(O)c1Oc1c2ccc(O)c1O [gallein], the “effect … of the KCl-induced increase in [Ca2+]i” value [1] is reported as “prevented” and the “chloroquine-induced increase in global [Ca2+]i, % of control” value [1] is reported as 19.9±8.5%.

For “MPS-phosducin-like protein C terminus [Anti-βγ]”, the “effect … of the KCl-induced increase in [Ca2+]i” value [1] was “prevented” and the “chloroquine-induced increase in global [Ca2+]i, % of control” value [1] was 18.4±4.8%.

pertussis toxin [PTX] was tested, and the “effect … of the KCl-induced increase in [Ca2+]i” value [1] was “prevented” and the “chloroquine-induced increase in global [Ca2+]i, % of control” value [1] was 21.1±8.6%.
